# Key:
# GLP-1R [1] = target: T1, GLP-1R (Rattus norvegicus, UniProt P32301); test: Glucose-stimulated insulin secretion (GSIS), insulin ELISA, INS-1E cells; assay type: cell-based; settings: 10 μM, 15 mM glucose, n = 3
# T1 construct: Rat INS-1E cells were cultured in RPMI-1640 containing 11 mM glucose; endogenous in cells; host or cells: INS-1E rat pancreatic beta cell line (healthy, diabetic and recovered states)
# T1 sequence (P32301 22-463): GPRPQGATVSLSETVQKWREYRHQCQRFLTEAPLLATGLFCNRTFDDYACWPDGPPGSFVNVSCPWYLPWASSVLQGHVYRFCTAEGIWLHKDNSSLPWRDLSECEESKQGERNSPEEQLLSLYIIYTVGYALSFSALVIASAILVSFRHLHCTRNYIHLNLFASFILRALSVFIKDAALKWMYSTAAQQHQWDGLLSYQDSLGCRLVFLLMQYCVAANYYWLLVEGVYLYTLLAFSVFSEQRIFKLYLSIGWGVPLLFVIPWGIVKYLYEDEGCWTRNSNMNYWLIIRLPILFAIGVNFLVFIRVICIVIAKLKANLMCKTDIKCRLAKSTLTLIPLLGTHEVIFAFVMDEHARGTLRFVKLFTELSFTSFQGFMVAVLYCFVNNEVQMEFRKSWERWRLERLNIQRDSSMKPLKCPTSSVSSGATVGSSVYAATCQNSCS
# Description: The cells were maintained in sterile 10 cm^2 tissue culture Petri dishes (Greiner Bio-one, Stonehouse, UK) by changing the FSM every 3–4 days and sub-culturing when they reached 100% confluency. Diabetic and recovered INS-1E cells were generated using a previously described method with some changes [41]. To produce ‘diabetic’ INS-1E cells, when healthy INS-1E cells reached >80% confluency, they were maintained in FSM containing high glucose (40 mM) for 4 weeks by changing the medium with high glucose every 3–4 days. To produce ‘recovered’ cells, the healthy cells were cultured initially in FSM containing 40 mM glucose (diabetic condition) for 4 weeks and then in FSM containing 11 mM glucose for 4 weeks. […] Unless otherwise specified, all incubations of the cells in the following assays were carried out in a humid incubator at 37 °C and 5% CO2, and all of the ELISAs were carried out at room temperature (RT).
# For the ELISA, the wells of 96-well plate inserts were coated with 50 μL of 3 μg/mL captured antibody (Novus Biologicals, Abingdon, UK) diluted in PBS for 2 h at 37 °C and then washed four times with PBST. The antibody-coated wells were then blocked for 1 h with 150 μL of blocking buffer (5% fish gelatin made in PBST). Samples of 50 μL of samples were added to the capture antibody-coated wells in duplicate and incubated overnight at 4 °C. The wells were then washed five times with PBST and incubated with 50 μL of HRP-conjugated detection antibody (Abcam; diluted 1/10,000 in dilution buffer) for 2 h. The wells were washed again five times with PBST and incubated with 50 μL of Ultra TMB substrate (Thermo Fisher Scientific, Loughborough, UK) for 5 min. The reaction was stopped by adding an equal volume of 2M sulfuric acid, then its optical density was read at 450 nm (OD450) using a plate reader. Using known insulin standards (Abcam, Cambridge, UK), the insulin concentrations of samples were determined.
# human islets = system: human islets; parameters: method as in PMID 20823098; settings: human islets isolated from a donor with T2D; cited from earlier work
# GLP-1R [2] = target: T1, GLP-1R; test: Glucose-stimulated intracellular cAMP production (GSICP), cAMP ELISA, INS-1E cells; assay type: cell-based; settings: diabetic INS-1E; 1 and 2 h, in some instances; 10 μM; n = 3
# Description: The cells were maintained in sterile 10 cm^2 tissue culture Petri dishes (Greiner Bio-one, Stonehouse, UK) by changing the FSM every 3–4 days and sub-culturing when they reached 100% confluency. Diabetic and recovered INS-1E cells were generated using a previously described method with some changes [41]. To produce ‘diabetic’ INS-1E cells, when healthy INS-1E cells reached >80% confluency, they were maintained in FSM containing high glucose (40 mM) for 4 weeks by changing the medium with high glucose every 3–4 days. To produce ‘recovered’ cells, the healthy cells were cultured initially in FSM containing 40 mM glucose (diabetic condition) for 4 weeks and then in FSM containing 11 mM glucose for 4 weeks. […]
# The intracellular cAMP contents of the INS-1E cells during the treatments was measured using a cAMP ELISA. […]
# For the ELISA, an anti-rabbit antibody (Genscript, Oxford, UK) diluted to 10 μg/mL in 100 mM NaHCO3 buffer (pH 9.6) was used to coat the wells (50 μL per well) of a 96-well plate overnight at 4 °C. […] The reaction was stopped after 5 min with 50 μL of 2M sulfuric acid, then its optical density was read at 450 nm (OD450) using a plate reader. Using known cAMP standards, the cAMP contents of the samples were determined.
# INS-1E cells [3] = test: GSIS with cAMP-elevating chemicals, insulin ELISA; assay type: cell-based, Rat; settings: IBMX (10 μM), forskolin (0.5 mM), 15 mM glucose, n = 3; for augmentation of GSIS versus allosteric agonists: up to 12 h, p > 0.05
# Description: Figure 9 Assessing the time-dependent effects of GLP-1R agonists and cAMP-elevating chemicals (IBMX and forskolin) on GSIS and GSICP in healthy, diabetic, and recovered INS-1E cells. […] Samples were analyzed using insulin (a) and cAMP (b) ELISAs. Data expressed as mean ± SEM, n = 3. […] No symbol on the bars indicates non-significance (p > 0.05) in comparison to the no agonist control at that time point. […] The cells were maintained in sterile 10 cm^2 tissue culture Petri dishes (Greiner Bio-one, Stonehouse, UK) by changing the FSM every 3–4 days and sub-culturing when they reached 100% confluency. Diabetic and recovered INS-1E cells were generated using a previously described method with some changes. […] To produce ‘recovered’ cells, the healthy cells were cultured initially in FSM containing 40 mM glucose (diabetic condition) for 4 weeks and then in FSM containing 11 mM glucose for 4 weeks. For all the following assays, INS-1E cells (100,000 cells/well) were plated in a 96-well plate in FSM and incubated for 24 h in a humid incubator at 37 °C and 5% CO2 for the cells to attach and reach >80% confluency. Unless otherwise specified, all incubations of the cells in the following assays were carried out in a humid incubator at 37 °C and 5% CO2, and all of the ELISAs were carried out at room temperature (RT). The insulin secreted by INS-1E cells during the treatments was measured using an insulin ELISA. INS-1E cells (100,000 cells/well) were plated in a 96-well plate in FSM. […] The cells were then incubated in the KRH buffer containing the specified concentration of glucose without or with the specified concentration of GLP-1R agonist(s) for the desired time. After cessation of the cell treatments, the media were clarified via centrifugation at 22,000× g for 5 min and then diluted 1 in 25 in dilution buffer (0.5% fish gelatin made in PBST [PBS with 0.05% tween-20]) and used for the insulin ELISA. The sample preparation for measuring the intracellular insulin contents of the INS-1E cells via the insulin ELISA was as follows. After cessation of the treatments, the cells were lysed in 150 μL of 0.1 M HCl. The cell lysates were centrifuged at 22,000× g for 5 min, then the supernatant was diluted 1 in 1000 in dilution buffer to use as the samples for the insulin ELISA. For the ELISA, the wells of 96-well plate inserts were coated with 50 μL of 3 μg/mL captured antibody (Novus Biologicals, Abingdon, UK) diluted in PBS for 2 h at 37 °C and then washed four times with PBST. […] The reaction was stopped by adding an equal volume of 2M sulfuric acid, then its optical density was read at 450 nm (OD450) using a plate reader. Using known insulin standards (Abcam, Cambridge, UK), the insulin concentrations of samples were determined.
# INS-1E cells [4] = test: Intracellular cAMP (GSICP) with cAMP-elevating chemicals, cAMP ELISA; assay type: cell-based, Rat; settings: IBMX (10 μM), forskolin (0.5 mM), 15 mM glucose, n = 3; for intracellular cAMP (GSICP) versus allosteric agonists: up to 12 h, p > 0.05
# Description: Figure 9 Assessing the time-dependent effects of GLP-1R agonists and cAMP-elevating chemicals (IBMX and forskolin) on GSIS and GSICP in healthy, diabetic, and recovered INS-1E cells. […] Samples were analyzed using insulin (a) and cAMP (b) ELISAs. Data expressed as mean ± SEM, n = 3. […] No symbol on the bars indicates non-significance (p > 0.05) in comparison to the no agonist control at that time point. […] The cells were maintained in sterile 10 cm^2 tissue culture Petri dishes (Greiner Bio-one, Stonehouse, UK) by changing the FSM every 3–4 days and sub-culturing when they reached 100% confluency. Diabetic and recovered INS-1E cells were generated using a previously described method with some changes. […] To produce ‘recovered’ cells, the healthy cells were cultured initially in FSM containing 40 mM glucose (diabetic condition) for 4 weeks and then in FSM containing 11 mM glucose for 4 weeks. For all the following assays, INS-1E cells (100,000 cells/well) were plated in a 96-well plate in FSM and incubated for 24 h in a humid incubator at 37 °C and 5% CO2 for the cells to attach and reach >80% confluency. Unless otherwise specified, all incubations of the cells in the following assays were carried out in a humid incubator at 37 °C and 5% CO2, and all of the ELISAs were carried out at room temperature (RT). The intracellular cAMP contents of the INS-1E cells during the treatments was measured using a cAMP ELISA. INS-1E cells (100,000 cells/well) were plated in a 96-well plate in FSM. After 24 h, the cells were pre-incubated with KRH buffer containing 0.5% fish gelatin for 1 h, washed twice with KRH and then incubated for 1 h with KRH to reduce basal cAMP levels. The cells were incubated in the KRH buffer containing various concentrations of glucose without or with different concentrations of GLP-1R agonists for the desired time. The cells were then lysed in 150 μL of 0.1M HCl by incubating at RT for 20 min, and then the cell lysates were centrifuged at 16,000× g for 10 min. A total of 12 μL of the supernatant was neutralized with 6 μL of 0.2M NaOH, diluted to 120 μL with TBS containing 0.05% Tween-20 (TBST), and used in the cAMP ELISA. For the ELISA, an anti-rabbit antibody (Genscript, Oxford, UK) diluted to 10 μg/mL in 100 mM NaHCO3 buffer (pH 9.6) was used to coat the wells (50 μL per well) of a 96-well plate overnight at 4 °C. The coated wells were washed twice with TBST and blocked with blocking buffer (TBST containing 0.5% fatty acid-free BSA) for 1 h. Samples of 50 μL were then added individually in duplicate to the antibody-coated wells. […] The reaction was stopped after 5 min with 50 μL of 2M sulfuric acid, then its optical density was read at 450 nm (OD450) using a plate reader. Using known cAMP standards, the cAMP contents of the samples were determined.
# [5] = system: dipeptidyl peptidase (DPP)-IV; settings: cited from earlier work
# Text: Type 2 diabetes (T2D), which is a multifactorial metabolic disease that is largely characterized by impaired insulin secretion and action, has become a global pandemic in recent decades. Despite the availability of various treatments, T2D post-diagnosis complications such as cardiovascular disease (CVD) remain prevalent, and finding long-term stable treatment regimes for patients can be challenging. Therefore, novel therapeutic strategies, which alleviate the pathology associated with T2D more effectively than current treatments, are highly desirable. Th ...
# GLP-1R [6] = system: GLP-1R; parameters: method as in PMID 27630114, doi:10.4172/2161-1459.1000138, PMID 27138453, PMID 27100083, PMID 25449603; settings: cited from earlier work
# Text: The activation of the Gαs subunit of heterotrimeric G-protein raises intracellular cAMP levels via adenylyl cyclase (AC) activation, whereas the activation of the Gαq subunit increases intracellular calcium (iCa^2+) levels and extracellular signal-regulated kinase (ERK) phosphorylation, which promotes GLP-1R internalization. The internalization of GLP-1R is associate ...
Compound,"GSIS at 48 h, 72 h and 96 h (GLP-1R [1]; diabetic INS-1E)","GSIS at 48 h, 72 h and 96 h (GLP-1R [1]; healthy and recovered INS-1E)",time after which augmentation of GSIS was lost (INS-1E cells [3]),augmentation of GSIS versus allosteric agonists (INS-1E cells [3]),time after which augmentation of GSICP was lost (INS-1E cells [4]),intracellular cAMP (GSICP) versus allosteric agonists (INS-1E cells [4]),also measured
"CC(C)(C)Nc1nc2cc(Cl)c(Cl)cc2nc1S(C)(=O)=O [Compound 2, 6,7-dichloro-2-methylsulfonyl-3-N-tert-butylaminoquinoxaline]",significantly boosted GSIS,slightly increased GSIS,,,,,
"CC[S+]([O-])c1nc(-c2cccc(OCc3ccccc3)c2)cc(C(F)(F)F)n1 (centres unmarked) [Compound B, 4-(3-(benzyloxy)phenyl)-2-(ethylsulfinyl)-6-(trifluoromethyl)-pyramidine]",significantly boosted GSIS,slightly increased GSIS,,,,,"insulin secretion (human islets): near-normal levels; GSICP, 8 mM glucose preincubation (GLP-1R [2]): boosted GSCIP to a greater extent"
"CC(C)Cn1c(=O)n(C)c(=O)c2[nH]cnc21 [IBMX, Isobutylmethylxanthine]",,,12 h,augmented GSIS to similar levels,12 h,raised intracellular cAMP levels,
CCCCCCCCCCCCCCCC(=O)N[C@@H](CCC(=O)NCCCC[C@H](NC(=O)[C@H](C)NC(=O)[C@H](C)NC(=O)[C@H](CCC(N)=O)NC(=O)CNC(=O)[C@H](CCC(=O)O)NC(=O)[C@H](CC(C)C)NC(=O)[C@H](Cc1ccc(O)cc1)NC(=O)[C@H](CO)NC(=O)[C@H](CO)NC(=O)[C@@H](NC(=O)[C@H](CC(=O)O)NC(=O)[C@H](CO)NC(=O)[C@@H](NC(=O)[C@H](Cc1ccccc1)NC(=O)[C@@H](NC(=O)CNC(=O)[C@H](CCC(=O)O)NC(=O)[C@H](C)NC(=O)[C@@H](N)Cc1cnc[nH]1)[C@@H](C)O)[C@@H](C)O)C(C)C)C(=O)N[C@@H](CCC(=O)O)C(=O)N[C@@H](Cc1ccccc1)C(=O)N[C@H](C(=O)N[C@@H](C)C(=O)N[C@@H](Cc1c[nH]c2ccccc12)C(=O)N[C@@H](CC(C)C)C(=O)N[C@H](C(=O)N[C@@H](CCCNC(=N)N)C(=O)NCC(=O)N[C@@H](CCCNC(=N)N)C(=O)NCC(=O)O)C(C)C)[C@@H](C)CC)C(=O)O [Liraglutide],,,,,,,resistance to DPP-IV [5]: resistant to breakdown by DPP-IV
C=C[C@@]1(C)CC(=O)[C@]2(O)[C@@]3(C)[C@@H](O)CCC(C)(C)[C@@H]3[C@H](O)[C@H](OC(C)=O)[C@@]2(C)O1 [forskolin],,,12 h,augmented GSIS to similar levels,12 h,raised intracellular cAMP levels,
GLP-1: hormone secreted into the circulation by intestinal L-cells in response to food intake,,,,,,,G-protein pathway activation via GLP-1R (GLP-1R [6]): activation of both the Gαs and Gαq pathways; half-life [5]: short half-life

# From publication PMC11203424, “Comparative Analysis of Orthosteric and Allosteric GLP-1R Agonists’ Effects on Insulin Secretion from Healthy, Diabetic, and Recovered INS-1E Pancreatic Beta Cells” (International Journal of Molecular Sciences, 2024)
